Source: patent US20070213402A1, “Compounds which interact with the thyroid hormone receptor for the treatment of fibrotic disease” (priority 1998, published 2007)

Legend:
[1] = system: collagenase I promoter; assay: Experiment 1: collagenase I promoter (-73/+63)-luciferase in CV1 cells transfected with GR1 (glucocorticoid receptor); assay type: cell-based, African Green Monkey; conditions: for % control (GR1): Blank = 100
Excerpt: (§1) Two plasmid constructs were introduced by standard calcium phosphate precipitation of DNA followed by glycerol shock (Ausubel F M, Brent R, Kingston D D, Moore J G et al Current protocols in molecular biology 1994 Greene Publishing Associates/Wiley-Interscience, New York, N.Y.) using a transformed African Green Monkey kidney cell line (CV1) (Schneikert J, Peterziel H, Defossez P-A, Klocker H, de Launoit Y and Cato A C B Androgen receptor-Ets protein interaction is a novel mechanism for steroid hormone-mediated down-modulation of matrix metalloproteinase expression, Journal of Biological Chemistry. Vol 271(39) (pp 23907-23913), 1996).
(§2) Accordingly, the following two plasmids were included into CV1 cells described above — • (a) Either of GR1 or pSG5ARF containing glucocorticoid or androgen receptor (AR) respectively, both at 2 ug per 5×10^5 cells, driven by the Rous sarcoma virus promoter, and • (b) a plasmid containing the −73/+63 portion of the collagenase I promoter linked to luciferase gene at 8 ug per 5×10^5 cells.
(§3) CPII was compound II above, clobuzarit.

[2] = system: collagenase I promoter; assay: Experiment 1: collagenase I promoter (-73/+63)-luciferase in CV1 cells transfected with pSG5ARF (androgen receptor); assay type: cell-based, African Green Monkey; conditions: for % control (AR): Blank = 100
Excerpt: as §1, §2, §3

[3] = target: T1, androgen receptor (Homo sapiens, UniProt P10275); assay: Experiment 2: PGL3MMTV-luciferase transactivation in CV1 cells with androgen receptor (AR); assay type: cell-based; conditions: for % control (AR): Blank = 100
T1 construct: expressed in transfected cells; host or cells: CV1 (transformed African Green Monkey kidney cell line)
T1 sequence (P10275 1-920): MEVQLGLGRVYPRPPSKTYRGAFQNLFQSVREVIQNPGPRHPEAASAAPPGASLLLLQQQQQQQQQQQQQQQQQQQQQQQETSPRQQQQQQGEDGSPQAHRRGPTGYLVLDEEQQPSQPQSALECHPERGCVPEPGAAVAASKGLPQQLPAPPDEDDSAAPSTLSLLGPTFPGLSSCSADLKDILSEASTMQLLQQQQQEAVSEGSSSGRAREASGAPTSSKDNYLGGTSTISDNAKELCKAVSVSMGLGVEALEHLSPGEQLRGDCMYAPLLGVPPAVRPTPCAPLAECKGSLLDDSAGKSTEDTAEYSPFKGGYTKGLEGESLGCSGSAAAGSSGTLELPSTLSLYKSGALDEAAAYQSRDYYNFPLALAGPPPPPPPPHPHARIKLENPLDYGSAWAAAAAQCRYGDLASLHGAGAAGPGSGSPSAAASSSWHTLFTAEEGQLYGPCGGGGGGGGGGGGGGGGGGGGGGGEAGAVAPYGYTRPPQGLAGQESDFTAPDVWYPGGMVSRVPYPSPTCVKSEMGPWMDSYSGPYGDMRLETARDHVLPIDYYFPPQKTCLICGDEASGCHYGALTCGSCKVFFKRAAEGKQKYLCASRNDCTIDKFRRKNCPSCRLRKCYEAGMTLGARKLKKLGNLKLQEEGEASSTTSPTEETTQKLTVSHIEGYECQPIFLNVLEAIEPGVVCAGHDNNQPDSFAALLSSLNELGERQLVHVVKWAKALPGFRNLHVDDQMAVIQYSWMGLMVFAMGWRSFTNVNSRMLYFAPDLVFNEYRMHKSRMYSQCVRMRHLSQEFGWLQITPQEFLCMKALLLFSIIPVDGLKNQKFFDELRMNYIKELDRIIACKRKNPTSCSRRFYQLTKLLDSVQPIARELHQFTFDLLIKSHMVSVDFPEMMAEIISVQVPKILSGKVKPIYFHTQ
Excerpt: as §1
This experiment was intended to investigate the activation of androgen and corticosteroid receptors by compound I.
CPII was compound II above, clobuzarit, which was used at 10^−7M.

[4] = system: NFκB; assay: Experiment 3: NFκB-driven 3-EnhTK-Luc reporter in CV1 cells with GR1; assay type: cell-based, African Green Monkey; conditions: for % Control: Blank = 100
Excerpt: as §1
This experiment was intended to show the effect of compounds I on a mediator of the immune response, nuclear factor—κB (NF-κB).
The following two plasmids were included into CV1 cells described above— • (a) GR1 as described above at 2 ug per 5×10^5 cells, and • (b) a plasmid designated 3-EnhTK-Luc (at 0.5 ug per 5×10^5 cells) which contains a transcription site that is activated by NFκB.
The blank represented the inclusion of these two plasmids alone; the relatively high value was caused by (i) the high level of serum in the culture, and (ii) the associated stress that the cells underwent during the […]—both of which upregulate NFκB. There was also a related relatively low activation of TNF (at 4 ng/ml) above a serum containing blank in the experiment. TNF was tumour necrosis factor alpha.

[5] = system: collagenase (MMP-1) promoter; assay: Experiment 4.3: collagenase (MMP-1) promoter-luciferase in MCF-7 cells with transfected chick thyroid hormone receptor; assay type: cell-based, human; conditions: MCF-7 + chick thyroid hormone receptor; for % Control: Blank = 100
Method: These experiments were intended to identify the receptor through which compounds I might be acting to block collagenase promoter activity.
Transfection procedure hereinbefore described with CV1 cells was repeated using MCF-7 mammary breast cancer cells derived from pleural effusion from a breast cancer patient. Additionally, each experiment included transfection of a plasmid (at 8 ug per 5×10^5 cells) containing the −517/+63 section of the collagenase (MMP-1) promoter linked to the luciferase gene. TPA was used as above to stimulate activity of the collagenase promoter resulting in luciferase production. Compound II or 3,3,5-triiodo-L-thyronine (T3) was included (both at 10^−8M), the latter being a known ligand for the thyroid hormone receptor.

[6] = substance added alone, TPA 75 ng/ml
[7] = substance added with TPA 75 ng/ml, Dex 10^-7M
[8] = substance added with TPA 75 ng/ml, DHT 10^-7M
[9] = CPII 10^-7M together with DHT 10^-7M
[10] = substance added alone, TNF 4 ng/ml
[11] = substance added with TNF 4 ng/ml
[12] = substance 10^-8M added with TPA

CC(C)(OCc1ccc(-c2ccc(Cl)cc2)cc1)C(=O)O [Compound II, 1-[4-(4-chlorophenyl)benzyloxy]-1-methylpropionic acid]
% control (GR1) ([1]; substance added alone): 48% | Raw counts (GR1) [1, 6]: 6151 counts | Raw counts (GR1) [1, 7]: 39968 counts | % control (GR1) [1, 7]: 311% | collagenase I activation, in words (GR1) ([1]; TPA-stimulated, glucocorticoid receptor): able to down regulate collagenase I activation | % control (AR) ([2]; substance added alone): 51% | Raw counts (AR) [2, 6]: 1374 counts | Raw counts (AR) [2, 8]: 5986 counts | % control (AR) [2, 8]: 224% | collagenase I activation, in words (AR) ([2]; TPA-stimulated, androgen receptor): able to down regulate collagenase I activation | activation of androgen receptor-driven transcription, in words ([3]; 10^-7M, compared with DHT): negligible activity | Raw counts (AR) [3, 9]: 1232241 counts | % control (AR) [3, 9]: 26574% | Raw counts (AR) ([3]; substance alone at 10^-7M): 33130 counts | % control (AR) ([3]; substance alone at 10^-7M): 714% | Raw Counts [4, 10]: 75812 counts | % Control [4, 10]: 127% | Raw Counts [4, 11]: 135886 counts | % Control [4, 11]: 228% | upregulation of transcriptional activity by NFκB, in words ([4]; versus background value): not able to upregulate transcriptional activity by NFκB | inhibitory effect on NFκB transcription, in words ([4]; with TNF): lack of inhibitory effect | stimulated collagenase transcription, in words ([5]; TPA): able to reduce stimulated collagenase transcription | Raw Counts [5, 12]: 4414 counts | % Control [5, 12]: 202% | % Control ([5]; substance added alone): 72% | Raw Counts ([5]; substance added alone, CPII 10^-8M): 1572 counts
